According to US11426375B2, “Substituted bisphenyl butanoic ester derivatives as NEP inhibitors” (NOVARTIS AG, priority 2019, dated 2022):

Tested on: DSS (Dahl Salt Sensitive) rats
Test: In vivo efficacy study on blood pressure in DSS rats (telemetry; systolic and diastolic pressure)
Conditions: for Systolic blood pressure, mean: Compound I-1 50 mg/kg, alone or combined, QD PO
Excerpt: An in vivo study ascertains the effects on blood pressure in DSS (Dahl Salt Sensitive) rats. The DSS hypertensive rat model is a model of hypertension that is sensitive to dietary salt (NaCl), see for example Rapp (1982) Hypertension 4:753-763 and Hegde et al. BMC Pharmacology 2011, 11 (Suppl 1):P33. Under pentobarbital sodium anesthesia, a DSI (Data Sciences International, St. Paul, Minn.) telemetric probe is implanted. The transducer is inserted into abdominal aorta, and the transmitter is implanted into abdominal cavity. During postoperative recovery period, close observation is performed. Analgesics (Buprenorphine, 0.1-0.5 mg/kg, once per day for 1 day) and preventive antibiotics (Cephradine, 10˜15 mg/kg, ip., once per day for 3 days) are administered on a daily basis. Before the treatment period, all animals are fed with 8% high salt food for about 2 weeks. Test compound is formulated in 0.5% HPC and administered by oral gavage. Five groups of animals are treated as follows: 1. Vehicle, 0.5% HPC, QD, PO, N=5 2. Valsartan, 30 mg/kg, QD, PO, N=5 3. Compound I-1, 50 mg/kg, QD, PO, N=6 4. Compound I-1, 15 mg/kg+Valsartan, 30 mg/kg, QD, PO, N=5 5. Compound I-1, 50 mg/kg+Valsartan, 30 mg/kg, QD, PO, N=5 N is the number of animals. The mean arterial pressure, systolic pressure, diastolic pressure and heart rate after administration for each animal are measured. Interim results obtained before full study completion are shown in Tables 18 and 19 (full cohort of animals beyond day 7 were reduced due to some loss). Mean measurements of the systolic (Table 18) and diastolic (Table 19) blood pressures, for the baseline day prior to first treatment and for treatment days 1 and 7 only, in each treatment group, are shown. Measurements obtained every other hour only are shown.

SMILES: CCCCC(=O)N(Cc1ccc(-c2ccccc2-c2nnn[nH]2)cc1)[C@H](C(=O)O)C(C)C [Valsartan, valsartan]
- Systolic blood pressure, mean (Baseline day prior to first treatment, Hour 1, groups Valsartan 30 mg/kg): 157.31
- Systolic blood pressure, mean (Baseline day prior to first treatment, Hour 3, groups Valsartan 30 mg/kg): 154.77
- Systolic blood pressure, mean (Baseline day prior to first treatment, Hour 5, groups Valsartan 30 mg/kg): 151.17
- Systolic blood pressure, mean (Baseline day prior to first treatment, Hour 7, groups Valsartan 30 mg/kg): 154.26
- Systolic blood pressure, mean (Baseline day prior to first treatment, Hour 9, groups Valsartan 30 mg/kg): 160.88
- Systolic blood pressure, mean (Baseline day prior to first treatment, Hour 11, groups Valsartan 30 mg/kg): 163.83
- Systolic blood pressure, mean (Baseline day prior to first treatment, Hour 13, groups Valsartan 30 mg/kg): 164.35
- Systolic blood pressure, mean (Baseline day prior to first treatment, Hour 15, groups Valsartan 30 mg/kg): 163.94
- Systolic blood pressure, mean (Baseline day prior to first treatment, Hour 17, groups Valsartan 30 mg/kg): 164.12
- Systolic blood pressure, mean (Baseline day prior to first treatment, Hour 19, groups Valsartan 30 mg/kg): 166.66
- Systolic blood pressure, mean (Baseline day prior to first treatment, Hour 21, groups Valsartan 30 mg/kg): 166.05
- Systolic blood pressure, mean (Baseline day prior to first treatment, Hour 23, groups Valsartan 30 mg/kg): 162.95
- effect on blood pressure (DSS rats, as compared to animals treated with vehicle alone, interim results): trend for lower blood pressure
- Systolic blood pressure, mean (Dosing day 1, Hour 1, Valsartan 30 mg/kg): 159.22
- Systolic blood pressure, mean (Dosing day 1, Hour 3, Valsartan 30 mg/kg): 149.24
- Systolic blood pressure, mean (Dosing day 1, Hour 5, Valsartan 30 mg/kg): 152.75
- Systolic blood pressure, mean (Dosing day 1, Hour 7, Valsartan 30 mg/kg): 160.54
- Systolic blood pressure, mean (Dosing day 1, Hour 9, Valsartan 30 mg/kg): 165.09
- Systolic blood pressure, mean (Dosing day 1, Hour 11, Valsartan 30 mg/kg): 166.16
- Systolic blood pressure, mean (Dosing day 1, Hour 13, Valsartan 30 mg/kg): 162.84
- Systolic blood pressure, mean (Dosing day 1, Hour 15, Valsartan 30 mg/kg): 162.88
- Systolic blood pressure, mean (Dosing day 1, Hour 17, Valsartan 30 mg/kg): 169.80
- Systolic blood pressure, mean (Dosing day 1, Hour 19, Valsartan 30 mg/kg): 162.27
- Systolic blood pressure, mean (Dosing day 1, Hour 21, Valsartan 30 mg/kg): 163.01
- Systolic blood pressure, mean (Dosing day 1, Hour 23, Valsartan 30 mg/kg): 155.05
- Systolic blood pressure, mean (Dosing day 7, Hour 1, Valsartan 30 mg/kg): 165.60
- Systolic blood pressure, mean (Dosing day 7, Hour 3, Valsartan 30 mg/kg): 143.04
- Systolic blood pressure, mean (Dosing day 7, Hour 5, Valsartan 30 mg/kg): 142.52
- Systolic blood pressure, mean (Dosing day 7, Hour 7, Valsartan 30 mg/kg): 153.17
- Systolic blood pressure, mean (Dosing day 7, Hour 9, Valsartan 30 mg/kg): 170.26
- Systolic blood pressure, mean (Dosing day 7, Hour 11, Valsartan 30 mg/kg): 173.95
- Systolic blood pressure, mean (Dosing day 7, Hour 13, Valsartan 30 mg/kg): 175.24
- Systolic blood pressure, mean (Dosing day 7, Hour 15, Valsartan 30 mg/kg): 177.02
- Systolic blood pressure, mean (Dosing day 7, Hour 17, Valsartan 30 mg/kg): 176.02
- Systolic blood pressure, mean (Dosing day 7, Hour 19, Valsartan 30 mg/kg): 176.83
- Systolic blood pressure, mean (Dosing day 7, Hour 21, Valsartan 30 mg/kg): 164.22
- Systolic blood pressure, mean (Dosing day 7, Hour 23, Valsartan 30 mg/kg): 163.41
- Diastolic blood pressure, Mean (Valsartan 30 mg/kg, Baseline day, Hour 1): 106.03
- Diastolic blood pressure, Mean (Valsartan 30 mg/kg, Baseline day, Hour 3): 102.82
- Diastolic blood pressure, Mean (Valsartan 30 mg/kg, Baseline day, Hour 5): 100.19
- Diastolic blood pressure, Mean (Valsartan 30 mg/kg, Baseline day, Hour 7): 103.02
- Diastolic blood pressure, Mean (Valsartan 30 mg/kg, Baseline day, Hour 9): 110.48
- Diastolic blood pressure, Mean (Valsartan 30 mg/kg, Baseline day, Hour 11): 114.29
- Diastolic blood pressure, Mean (Valsartan 30 mg/kg, Baseline day, Hour 13): 115.22
- Diastolic blood pressure, Mean (Valsartan 30 mg/kg, Baseline day, Hour 15): 113.98
- Diastolic blood pressure, Mean (Valsartan 30 mg/kg, Baseline day, Hour 17): 114.14
- Diastolic blood pressure, Mean (Valsartan 30 mg/kg, Baseline day, Hour 19): 116.35
- Diastolic blood pressure, Mean (Valsartan 30 mg/kg, Baseline day, Hour 21): 116.78
- Diastolic blood pressure, Mean (Valsartan 30 mg/kg, Baseline day, Hour 23): 111.79
- Diastolic blood pressure, Mean (Valsartan 30 mg/kg, Dosing day 1, Hour 1): 107.73
- Diastolic blood pressure, Mean (Valsartan 30 mg/kg, Dosing day 1, Hour 3): 101.25
- Diastolic blood pressure, Mean (Valsartan 30 mg/kg, Dosing day 1, Hour 5): 98.63
- Diastolic blood pressure, Mean (Valsartan 30 mg/kg, Dosing day 1, Hour 7): 100.29
- Diastolic blood pressure, Mean (Valsartan 30 mg/kg, Dosing day 1, Hour 9): 109.35
- Diastolic blood pressure, Mean (Valsartan 30 mg/kg, Dosing day 1, Hour 11): 115.04
- Diastolic blood pressure, Mean (Valsartan 30 mg/kg, Dosing day 1, Hour 13): 116.06
- Diastolic blood pressure, Mean (Valsartan 30 mg/kg, Dosing day 1, Hour 15): 113.61
- Diastolic blood pressure, Mean (Valsartan 30 mg/kg, Dosing day 1, Hour 17): 112.82
- Diastolic blood pressure, Mean (Valsartan 30 mg/kg, Dosing day 1, Hour 19): 119.69
- Diastolic blood pressure, Mean (Valsartan 30 mg/kg, Dosing day 1, Hour 21): 112.65
- Diastolic blood pressure, Mean (Valsartan 30 mg/kg, Dosing day 1, Hour 23): 112.26
- Diastolic blood pressure, Mean (Valsartan 30 mg/kg, Dosing day 7, Hour 1): 113.86
- Diastolic blood pressure, Mean (Valsartan 30 mg/kg, Dosing day 7, Hour 3): 94.17
- Diastolic blood pressure, Mean (Valsartan 30 mg/kg, Dosing day 7, Hour 5): 93.33
- Diastolic blood pressure, Mean (Valsartan 30 mg/kg, Dosing day 7, Hour 7): 102.69
- Diastolic blood pressure, Mean (Valsartan 30 mg/kg, Dosing day 7, Hour 9): 117.65
- Diastolic blood pressure, Mean (Valsartan 30 mg/kg, Dosing day 7, Hour 11): 123.73
- Diastolic blood pressure, Mean (Valsartan 30 mg/kg, Dosing day 7, Hour 13): 125.63
- Diastolic blood pressure, Mean (Valsartan 30 mg/kg, Dosing day 7, Hour 15): 126.20
- Diastolic blood pressure, Mean (Valsartan 30 mg/kg, Dosing day 7, Hour 17): 124.23
- Diastolic blood pressure, Mean (Valsartan 30 mg/kg, Dosing day 7, Hour 19): 127.67
- Diastolic blood pressure, Mean (Valsartan 30 mg/kg, Dosing day 7, Hour 21): 112.77
- Diastolic blood pressure, Mean (Valsartan 30 mg/kg, Dosing day 7, Hour 23): 112.12
